One test concerns gastric secretion. Put plainly: Gastric antisecretory activity after intragastric administration, unanesthetized rat. Format: in vivo. Particulars: 8 mg/kg b.w. intragastrically, saline solution. As to the method: The unanesthetized rat model was used in an exact manner to that employed in the evaluation of gastric antisecretory activity after parenteral administration described above in A, with the following modification. Following recording of the gastric pH for 1 hour, drainage of the gastric secretions was interrupted by means of a forceps. Saline solutions (total volume = 1000 μl) of Compound N (at the dose of 8 mg/kg b.w.) were then intragastrically administered, via the canula in the avascular stomach, which was closed. Fifteen minutes later, the catheter draining the gastric secretions was reopened; the water infusion through the catheter in the forestomach was simultaneously reestablished. The pH was now recorded continuously for 1 1/2 hours. Samples of gastric juice were taken before and after treatment, and analyzed for the usual four parameters of gastric secretion.

The test system of test [1] is basal gastric acid secretion. As to the kind of experiment: Gastric antisecretory activity in unanesthetized gastric fistula rat, i.v. In kind it is in vivo. The conditions noted are these: 200 μg i.v. single bolus. As for the experimental part: The gastric antisecretory effect of somatostatin analogs was studied in a model which utilizes unanesthetized rats.
All operative techniques were carried out on fasted female albino rats (average weight 250 g), under Penthrane anesthesia, using montraumatic microsurgical instruments, polyethylene tubing and a special adhesive. The basic model used in the present studies consisted of:
This allowed adequate hydration through the constant infusion of 0.15M NaCl (at the rate of 1.4 ml/hr.). This catheter was also used for i.v. administration of solutions of the test compounds.
(b) Catheterization of the stomach. A cannula in the forestomach allowed washing of the gastric lumen with saline (before experiments). Water (0.2 ml/10 min) was infused through this catheter during the experimental periods. This was done to prevent obstruction of the "collecting" cannula (see below) by gastric debris and to obtain a practical workable volume to measure several parameters of gastric secretion. A second cannula was positioned in the glandular stomach, close to the greater curvature, in the more dependent site and in such a way as to allow collection, by gravity, of all fluids emerging from the stomach. Passage of these secretions through a small glass container permitted continuous recording of pH by means of a glass microelectrode. A fraction collector was used to simultaneously obtain the gastric secretions.
(c) Catheterization of the lower part of the common bile duct to procure mixed secretions of bile and pancreatic juice as a function of time. This was done with the purpose of examining the effect of these compounds, if any, on bile flow.
This preparation is suitable for the bioassay of microgram quantities of gastric secretory depressants in which each animal serves as its own control. The rats (250 g b.w.) were allowed to attain a period of stabilized gastric acid output (for one hour) and were then injected intravenously (100 μl) with 200 μg of the test compound. This single bolus injection was immediately followed by a rinsing injection of 50 μl saline, thus insuring quantitative delivery of the dose. The pH was recorded continuously for 1 hour before and 1 1/2 hour after the i.v. injection of the test compounds. The gastric secretions were collected over 10-minute intervals before and after dosage. Four parameters of gastric secretion were evaluated: (a) changes in the negative logarithm of the hydrogen ion activity (pH, determined by the glass electrode either by a continuous trace or in samples taken at 10-minute intervals); (b) volume; (c) total acid concentration (μEq/ml); and d) total acid output (μEq/10-min periods).

For test [2], the system named is pentagastrin-induced gastric acid secretion. Particulars: Brown et al. 1977; cited from earlier work.
The subject of test [3] is growth hormone, insulin and glucagon. The conditions noted are these: Brown et al. 1977; cited from earlier work.

Non-standard residues stand in square brackets, D forms with d. Residues, ends and D or L forms follow the SMILES beside them. Gly(N-2-aminoethyl) = NCCNCC(=O)O

In the case of “Aminoethylglycyl-aminoethylglycyl-L-cysteinyl-L-lysyl-L-asparaginyl-L-phenylalanyl-L-phenylalanyl-D-tryptopyl-L-lysyl-L-threonyl-L-phenylalanyl-L-threonyl-L-seryl-L-cysteine [Compound N]”, the “gastric antisecretory activity after intragastric administration” value in the test with gastric secretion is on record as “active after intragastric administration”.

`C[C@@H](O)[C@@H]1NC(=O)[C@H](CCCCN)NC(=O)[C@H](Cc2c[nH]c3ccccc23)NC(=O)[C@H](Cc2ccccc2)NC(=O)[C@H](Cc2ccccc2)NC(=O)[C@H](CC(N)=O)NC(=O)[C@H](CCCCN)NC(=O)CN(CCN)C(=O)[C@H](CO)NC(=O)[C@H]([C@@H](C)O)NC(=O)[C@H](Cc2ccccc2)NC1=O` [Compound D, Cyclo [Aminoethylglycyl-L-lysyl-L-asparaginyl-L-phenylalanyl-L-phenylalanyl-L-tryptophyl-L-lysyl-L-threonyl-L-phenylalanyl-L-threonyl-L-seryl]] (cyclo(FFWKTFTS[Gly(N-2-aminoethyl)]KN)): the “gastric antisecretory activity (pH and acid concentration), in words, relative to somatostatin” value in test [1] is given as “erratic activity”.

On to `C[C@@H](O)[C@H](NC(=O)[C@H](Cc1ccccc1)NC(=O)[C@@H](NC(=O)[C@H](CCCCN)NC(=O)[C@H](Cc1c[nH]c2ccccc12)NC(=O)[C@H](Cc1ccccc1)NC(=O)[C@H](Cc1ccccc1)NC(=O)[C@H](CC(N)=O)NC(=O)[C@H](CCCCN)NC(=O)[C@H](CS)NC(=O)CNCCN)[C@@H](C)O)C(=O)N[C@@H](CO)C(=O)N[C@@H](CS)C(=O)N(CCN)CC(=O)O` [Compound J, Aminoethylglycyl-L-cysteinyl-L-lysyl-L-asparaginyl-L-phenylalanyl-L-phenylalanyl-L-tryptophyl-L-lysyl-L-threonyl-L-phenylalanyl-L-threonyl-L-seryl-L-cysteinyl-aminoethylglycine] (H-[Gly(N-2-aminoethyl)]CKNFFWKTFTSC[Gly(N-2-aminoethyl)]-OH), for which, in test [1], the “gastric antisecretory activity (pH and acid concentration), in words, relative to somatostatin” value is “less active than somatostatin”.

With `C[C@H](N)C(=O)NCC(=O)N[C@@H](CS)C(=O)N[C@@H](CCCCN)C(=O)N[C@@H](CC(N)=O)C(=O)N[C@@H](Cc1ccccc1)C(=O)N[C@@H](Cc1ccccc1)C(=O)N[C@@H](Cc1c[nH]c2ccccc12)C(=O)N[C@@H](CCCCN)C(=O)N[C@H](C(=O)N[C@@H](Cc1ccccc1)C(=O)N[C@H](C(=O)N[C@@H](CO)C(=O)N[C@@H](CS)C(=O)O)[C@@H](C)O)[C@@H](C)O` [Compound B, HAlaGlyCysLysAsnPhePheTrpLysThrPheThrSerCysOH], in test [1], the “gastric antisecretory activity (pH and acid concentration), in words, relative to somatostatin” value was “as active as the oxidized, cyclic somatostatin”.

Consider (D-Trp^8)-somatostatin, for which the “potency in inhibition of pentagastrin-induced gastric acid secretion relative to somatostatin” value in test [2] is given as “less potent”. Besides, in test [3], the “potency in inhibition of growth hormone, insulin and glucagon relative to somatostatin” value is on record as “higher potency than somatostatin”.

As for `C[C@H](NC(=O)CNCCN)C(=O)NCC(=O)N[C@@H](CS)C(=O)N[C@@H](CCCCN)C(=O)N[C@@H](CC(N)=O)C(=O)N[C@@H](Cc1ccccc1)C(=O)N[C@@H](Cc1ccccc1)C(=O)N[C@@H](Cc1c[nH]c2ccccc12)C(=O)N[C@@H](CCCCN)C(=O)N[C@H](C(=O)N[C@@H](Cc1ccccc1)C(=O)N[C@H](C(=O)N[C@@H](CO)C(=O)N[C@@H](CS)C(=O)O)[C@@H](C)O)[C@@H](C)O` [Compound E, Aminoethylglycyl-L-alanyl-glycyl-L-cysteinyl-L-lysyl-L-asparaginyl-L-phenylalanyl-L-phenylalanyl-L-tryptophyl-L-lysyl-L-threonyl-L-phenylalanyl-L-threonyl-L-seryl-L-cysteine], the “gastric antisecretory activity (pH and acid concentration), in words, relative to somatostatin” value in test [1] is on record as “severely decreases activity”.
